Entries after “also recorded” stand apart in the source; their conditions may differ.
Assays:
[1] = tested on: Corynebacterium pseudodiphtheriticum 261; experiment: Antibiotic Spectrum Profile, agar diffusion test; type: cell-based; conditions: 1 mg./ml., read-out: Diameters of Inhibition Zones
[2] = tested on: Xanthomonas vesicatoria 815; experiment: Antibiotic Spectrum Profile, agar diffusion test; type: cell-based; conditions: 1 mg./ml., read-out: Diameters of Inhibition Zones
[3] = stability to handling; type: physicochemical; conditions: pale yellow solid
[4] = tested on: Salmonella gallinarum 1287; experiment: Antibiotic Spectrum Profile, agar diffusion test; type: cell-based; conditions: Salmonella enterica, 1 mg./ml., read-out: Diameters of Inhibition Zones
[5] = tested on: Klebsiella pneumoniae 1264; experiment: Antibiotic Spectrum Profile, agar diffusion test; type: cell-based; conditions: 1 mg./ml., read-out: Diameters of Inhibition Zones
[6] = tested on: species of Pasteurella; experiment: in vitro activity; type: cell-based
[7] = tested on: Bacillus sp. 633; experiment: Antibiotic Spectrum Profile, agar diffusion test; type: cell-based; conditions: 1 mg./ml., read-out: Diameters of Inhibition Zones
Procedure: To further characterize FR-02A in vitro, activity data for it was obtained using an antibiotic spectrum profile. The test involves applications of a droplet of antibiotic approximately 0.015 ml. on the surface of seeded complex agar plates. […] The results are reported in Table 1 in terms of mm. of inhibition zones.

[8] = tested on: M. synoviae; experiment: in vitro activity; type: cell-based
[9] = tested on: M. arthritidis; experiment: in vitro activity; type: cell-based
[10] = tested on: E. coli (MB 1418); experiment: in vitro activity; type: cell-based
[11] = tested on: Strep. pyogenes; experiment: in vivo test in mice, Strep. pyogenes infection; conditions: infection IP, therapy IP, at time of infection and 6 hours later
Procedure: (§1) *Values in the table are expressed in mg./mouse. Both infections and
(§2) therapeutic doses of FR-02A were administered intraperitoneally. FR-02A
(§3) was administered at time of infection and again 6 hours later.

[12] = tested on: Sarcina lutea 1101; experiment: Antibiotic Spectrum Profile, agar diffusion test; type: cell-based; conditions: Micrococcus luteus, 1 mg./ml., read-out: Diameters of Inhibition Zones
[13] = solubility; type: physicochemical; conditions: water-immiscible organic solvents
[14] = tested on: coccidia; experiment: activity against coccidia; type: cell-based
[15] = tested on: bacteria; experiment: antibacterial activity in vivo in mice; conditions: in words
[16] = tested on: Ps. stutzeri 1231; experiment: Antibiotic Spectrum Profile, agar diffusion test; type: cell-based; conditions: Stutzerimonas stutzeri, 1 mg./ml., read-out: Diameters of Inhibition Zones
[17] = tested on: Streptococcusagalactiae; experiment: in vitro activity; type: cell-based
[18] = tested on: gram-positive bacteria; experiment: antibacterial activity; type: cell-based
[19] = tested on: M. hyorthinis; experiment: in vitro activity; type: cell-based
[20] = tested on: Brucella bronchiseptica 965; experiment: microbe, parasite or virus in culture; type: cell-based; conditions: Bordetella bronchiseptica, 965, read-out: Diameters of Inhibition Zones
[21] = tested on: Bordetella; experiment: in vitro activity; type: cell-based
[22] = tested on: Staphylococcus aureus (MB 703); experiment: in vitro activity; type: cell-based
[23] = tested on: Bordetella bronchiseptica; experiment: systemic infections produced by Bordetella bronchiseptica in mice; type: in vivo; conditions: orally
[24] = tested on: Staphylococcus aureus (MB 210); experiment: in vitro activity; type: cell-based
[25] = tested on: Bacillus subtilis (MB 964); experiment: in vitro activity; type: cell-based
[26] = toxicity studies in noninfected mice; type: in vivo; conditions: for Toxicity, Tolerated / Toxicity, Toxic: IP
Procedure: as §1, §2, §3
**Toxicity studies of FR-02A in noninfected mice indicate that two doses
of 2.5 mg./mouse, 6 hours apart are tolerated; but higher doses i.e. 5 to […]

[27] = tested on: Aerobacter aerogenes 835; experiment: Antibiotic Spectrum Profile, agar diffusion test; type: cell-based; conditions: Klebsiella aerogenes, 1 mg./ml., read-out: Diameters of Inhibition Zones
[28] = tested on: PPLO; experiment: PPLO in chickens; type: in vivo
[29] = tested on: PPLO; experiment: PPLO in pigs; type: in vivo
[30] = tested on: Alcaligenes faecalis 10; experiment: Antibiotic Spectrum Profile, agar diffusion test; type: cell-based; conditions: 1 mg./ml., read-out: Diameters of Inhibition Zones
[31] = growth promotion in animals; type: in vivo, animals such as chickens, sheep and cattle; conditions: feed additive
[32] = tested on: Streptococcus faecalis 753; experiment: Antibiotic Spectrum Profile, agar diffusion test; type: cell-based; conditions: Enterococcus faecalis, 1 mg./ml., read-out: Diameters of Inhibition Zones

CC=CC=CC1OC(O)(C(CC)C(=O)NCC=CC=C(C)C(OC)C(C)C2OC(C=CC=CC=C(C)C(=O)c3c(O)ccn(C)c3=O)C(O)C2O)C(O)C(OC2OC(C)C(OC3OC(C)C(OC)C(O)C3OC)C(OC)C2O)C1(C)C (stereo not shown) [FR-02A, efrotomycin]
zone of inhibition at 1000 µg/mL [1]: 27 mm
zone of inhibition at 1000 µg/mL [2]: 13 mm
stability to normal handling [3]: stable to normal handling
zone of inhibition at 1000 µg/mL [4]: 13 mm
zone of inhibition at 1000 µg/mL [5]: 16 mm
in vitro activity [6]: effective
zone of inhibition at 1000 µg/mL [7]: 18 mm
in vitro activity [8]: effective
in vitro activity [9]: effective
activity [10]: Activity was also found
ED50 [11]: 0.247 mg./mouse
zone of inhibition at 1000 µg/mL [12]: 28 mm
solubility in water-immiscible organic solvents [13]: highly soluble
activity against coccidia [14]: shows activity
antibacterial activity in vivo [15]: broad spectrum of antibacterial activity
zone of inhibition at 1000 µg/mL [16]: 10 mm
in vitro activity [17]: effective
activity against gram-positive bacteria [18]: shows activity; also recorded: effective
in vitro activity [19]: effective
zone of inhibition at 1000 µg/mL [20]: 18 mm
in vitro activity [21]: effective
activity [22]: Activity was also found
efficacy in systemic infections produced by Bordetella bronchiseptica [23]: orally effective
activity [24]: Activity was also found
activity [25]: Activity was also found
Toxicity, Tolerated ([26]; Table 2 line Proteus vulgaris): 5.0 mg./mouse
Toxicity, Toxic ([26]; Table 2 line Proteus vulgaris): 5.0 mg./mouse
Toxicity, Tolerated ([26]; Table 2 line Strep. pyogenes): 1.25 mg./mouse
Toxicity, Toxic ([26]; Table 2 line Strep. pyogenes): 5.0 mg./mouse
toxicity in vivo ([26]; in mice, in words): low toxicity
tolerated dose ([26]; noninfected mice, two doses 6 hours apart): 2.5 mg./mouse
zone of inhibition at 1000 µg/mL [27]: 13 mm
efficacy against PPLO [28]: effective
efficacy against PPLO [29]: effective
zone of inhibition at 1000 µg/mL [30]: 19 mm
growth promotion [31]: shortens the time required for bringing animals up to marketable weight
zone of inhibition at 1000 µg/mL [32]: 11 mm
